Results as given in paper PMC2390898 (Antiviral Research, 2006).
Read-outs that look alike come from different tables or passages of the source.

Key:
[1] = tested on: BCBL-1 cells; conditions: for relative percentage of fluorescence intensity (cell viability): 1 h
[2] = tested on: RTA; type: cell-based, Kaposi's sarcoma-associated herpesvirus (KSHV)
[3] = tested on: RTA; type: cell-based, Kaposi's sarcoma-associated herpesvirus (KSHV); remark: listed apart in the source
[4] = tested on: RTA; type: cell-based, Kaposi's sarcoma-associated herpesvirus (KSHV); remark: listed apart in the source
[5] = tested on: LANA; type: cell-based, Kaposi's sarcoma-associated herpesvirus (KSHV)
[6] = tested on: RTA; type: cell-based, Kaposi's sarcoma-associated herpesvirus (KSHV); remark: listed apart in the source
[7] = tested on: ORF50 leader sequence (RP1 P-PMO target region)-luciferase RNA; type: biochemical, Kaposi's sarcoma-associated herpesvirus (KSHV)
[8] = tested on: LP1/luciferase RNA; assay: Cell-free reporter assay with LP1/luciferase RNA; type: biochemical, Kaposi's sarcoma-associated herpesvirus (KSHV); conditions: data not shown
[9] = tested on: BCBL-1 cells; assay: PMO/P-PMO uptake and persistence in BCBL-1 cells; type: cell-based
[10] = tested on: KSHV; type: cell-based, Kaposi's sarcoma-associated herpesvirus (KSHV)

With `CC(=O)N1C[C@@H](COP(=O)(N(C)C)N2C[C@@H](COP(=O)(N(C)C)N3C[C@@H](COP(=O)(N(C)C)N4C[C@@H](COP(=O)(N(C)C)N5C[C@@H](COP(=O)(N(C)C)N6C[C@@H](COP(=O)(N(C)C)N7C[C@@H](COP(=O)(N(C)C)N8C[C@@H](COP(=O)(N(C)C)N9C[C@@H](COP(=O)(N(C)C)N%10C[C@@H](COP(=O)(N(C)C)N%11C[C@@H](COP(=O)(N(C)C)N%12C[C@@H](COP(=O)(N(C)C)N%13C[C@@H](COP(=O)(N(C)C)N%14C[C@@H](COP(=O)(N(C)C)N%15C[C@@H](COP(=O)(N(C)C)N%16C[C@@H](COP(=O)(N(C)C)N%17C[C@@H](COP(=O)(N(C)C)N%18C[C@@H](COP(=O)(N(C)C)N%19C[C@@H](COP(=O)(N(C)C)N%20C[C@@H](COP(=O)(N(C)C)N%21CCN(C(=O)CCCN%22C(=O)CC(SC[C@H](NC(=O)[C@H](CCCNC(=N)N)NC(=O)[C@H](CCCNC(=N)N)NC(=O)[C@H](CCCNC(=N)N)NC(=O)[C@H](CCCNC(=N)N)NC(=O)[C@H](Cc%23ccccc%23)NC(=O)[C@H](Cc%23ccccc%23)NC(=O)[C@H](CCCNC(=N)N)NC(=O)[C@H](CCCNC(=N)N)NC(=O)[C@H](CCCNC(=N)N)NC(=O)[C@H](CCCNC(=N)N)NC(=O)[C@@H](N)CCCNC(=N)N)C(N)=O)C%22=O)CC%21)O[C@@H](n%21cnc%22c(=O)[nH]c(N)nc%22%21)C%20)O[C@@H](n%20cnc%21c(N)ncnc%21%20)C%19)O[C@@H](n%19cc(C)c(=O)[nH]c%19=O)C%18)O[C@@H](n%18cnc%19c(N)ncnc%19%18)C%17)O[C@@H](n%17cc(C)c(=O)[nH]c%17=O)C%16)O[C@@H](n%16cnc%17c(N)ncnc%17%16)C%15)O[C@@H](n%15ccc(N)nc%15=O)C%14)O[C@@H](n%14cnc%15c(N)ncnc%15%14)C%13)O[C@@H](n%13ccc(N)nc%13=O)C%12)O[C@@H](n%12cnc%13c(N)ncnc%13%12)C%11)O[C@@H](n%11cnc%12c(N)ncnc%12%11)C%10)O[C@@H](n%10ccc(N)nc%10=O)C9)O[C@@H](n9cnc%10c(N)ncnc%109)C8)O[C@@H](n8ccc(N)nc8=O)C7)O[C@@H](n7ccc(N)nc7=O)C6)O[C@@H](n6ccc(N)nc6=O)C5)O[C@@H](n5cnc6c(N)ncnc65)C4)O[C@@H](n4cnc5c(N)ncnc54)C3)O[C@@H](n3cc(C)c(=O)[nH]c3=O)C2)O[C@@H](n2cc(C)c(=O)[nH]c2=O)C1` (stereo partly drawn) [CP1] the cytotoxicity [1] was “no detectable cytotoxicity”, the “relative percentage of fluorescence intensity (cell viability)” value ([1]; 8 μM) was 106% and the “relative percentage of fluorescence intensity (cell viability)” value ([1]; 16 μM) was 107%. For the same compound, the “RTA flow cytometry profile” value [2] was “same profile as the mock treatment control”, the “RTA-positive cells by IFA” value [3] was “approximately 20%” and the “change in RTA expression by Western blot” value [4] was “no detectable change”. The “LANA staining by IFA after three treatments” value [5] was “no detectable effect” and the “number of RTA-positive cells by IFA in BC-1 cells” value [6] was “no effect”.

In the case of H-RRRRRFFRRRRC-NH2 [LP1], the “effect on luciferase translation (negative control P-PMO)” value [7] is reported as “did not have any effect”, the “change in LANA level, recurrent application” value [5] is reported as “no change” and the “effect on LANA expression, single application (IFA and Western blot)” value [5] is reported as “no effect”. The “inhibition of translation in LP1/luciferase reporter system” value [8] was “effective at inhibiting translation”.

With H-RRRRRFFRRRRC-NH2 [LP2] the “LANA protein level (IFA and Western blot)” value [5] was “caused reduction”, the “LANA staining by IFA after three treatments” value [5] was “much weaker” and the “reduction in LANA protein level after the second application” value [5] was “over 60%”.

For H-RRRRRFFRRRRC-NH2 [P-PMO-F1], the “cells with green fluorescence at 24, 48 and 72 h (fluorescence microscopy)” value ([9]; BCBL-1 cells treated 4 h with 8 μM, rinsed, harvested 24, 48 and 72 h later) was “almost all cells”, the “cells with green fluorescence at 24, 48 and 72 h (flow cytometry)” value ([9]; BCBL-1 cells treated 4 h with 8 μM, rinsed, harvested 24, 48 and 72 h later, all three time points) was “over 95%” and the “fluorescence of cells by flow cytometry” value ([9]; BCBL-1 cells, 8 μM, treated for 4 h, flow cytometry, 525 nm band pass filter) was “high percentage”. The “green fluorescence in treated cells at day 7” value ([9]; BCBL-1 cells, day 7 after treatment, reduced intensity, data not shown) was “still observed”.

H-RRRRRFFRRRRC-NH2 [mRP1] was tested, and the “change in RTA expression by Western blot” value [4] was “no effect”.

With “tetradecanoyl phorbol acetate [TPA, reference compound]” the “RTA-positive cells by flow cytometry after TPA induction, no P-PMO” value [2] was “approximately 25%”, the “increase of KSHV viral DNA level by TPA induction, in cells” value [10] was 1.84 fold and the “increase of KSHV viral DNA level by TPA induction, in culture supernatant” value [10] was 2.75 fold. The “RTA-positive cells by IFA after TPA induction, no P-PMO” value [3] was “approximately 20%”.
